Molecular target: T1, cytosolic phosphoenolpyruvate carboxykinase (PCK1) (Rattus norvegicus, UniProt P07379)
T1 sequence (P07379 1-622): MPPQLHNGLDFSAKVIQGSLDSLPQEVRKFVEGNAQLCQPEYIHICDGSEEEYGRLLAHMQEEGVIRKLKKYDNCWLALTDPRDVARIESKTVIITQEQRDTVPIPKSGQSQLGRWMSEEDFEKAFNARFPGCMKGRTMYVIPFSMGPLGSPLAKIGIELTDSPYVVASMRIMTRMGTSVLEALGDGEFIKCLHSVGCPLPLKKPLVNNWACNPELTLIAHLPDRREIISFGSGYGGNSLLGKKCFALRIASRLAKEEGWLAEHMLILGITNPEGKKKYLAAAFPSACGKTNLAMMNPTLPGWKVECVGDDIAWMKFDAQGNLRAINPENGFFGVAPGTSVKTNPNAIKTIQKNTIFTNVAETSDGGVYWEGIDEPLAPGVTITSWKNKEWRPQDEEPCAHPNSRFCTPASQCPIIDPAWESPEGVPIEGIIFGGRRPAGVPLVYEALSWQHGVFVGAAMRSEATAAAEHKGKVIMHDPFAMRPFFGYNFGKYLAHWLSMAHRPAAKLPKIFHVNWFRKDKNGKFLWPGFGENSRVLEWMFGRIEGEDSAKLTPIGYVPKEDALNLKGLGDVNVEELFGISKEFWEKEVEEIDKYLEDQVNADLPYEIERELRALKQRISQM
Assay: STD NMR and DEEP-STD NMR
Type: binding

`CC(C)(COP(=O)(O)OP(=O)(O)OC[C@H]1O[C@@H](n2cnc3c(N)ncnc32)[C@H](O)[C@@H]1OP(=O)(O)O)[C@@H](O)C(=O)NCCC(=O)NCCS` [coenzyme A] was tested, and the “STD NMR and DEEP-STD NMR” value was “STD NMR experiments showed clear STD signals for both, acetyl-CoA and CoA (see Fig. S4), confirming that they bind to PCK1”.
